Laboratory results from ChEMBL document CHEMBL5653615 (J Biol Chem, 2013).

Tests used:
[1] = target: Angiopoietin-1 receptor (Homo sapiens) (UniProt Q02763); assay: Inhibition of human TEK at 500 nM by HotSpot assay relative to control
[2] = target: T1, Serine/threonine-protein kinase ULK2 (Homo sapiens) (UniProt Q8IYT8); assay: Inhibition of human ULK2 at 500 nM by HotSpot assay relative to control
T1 sequence (whole entry): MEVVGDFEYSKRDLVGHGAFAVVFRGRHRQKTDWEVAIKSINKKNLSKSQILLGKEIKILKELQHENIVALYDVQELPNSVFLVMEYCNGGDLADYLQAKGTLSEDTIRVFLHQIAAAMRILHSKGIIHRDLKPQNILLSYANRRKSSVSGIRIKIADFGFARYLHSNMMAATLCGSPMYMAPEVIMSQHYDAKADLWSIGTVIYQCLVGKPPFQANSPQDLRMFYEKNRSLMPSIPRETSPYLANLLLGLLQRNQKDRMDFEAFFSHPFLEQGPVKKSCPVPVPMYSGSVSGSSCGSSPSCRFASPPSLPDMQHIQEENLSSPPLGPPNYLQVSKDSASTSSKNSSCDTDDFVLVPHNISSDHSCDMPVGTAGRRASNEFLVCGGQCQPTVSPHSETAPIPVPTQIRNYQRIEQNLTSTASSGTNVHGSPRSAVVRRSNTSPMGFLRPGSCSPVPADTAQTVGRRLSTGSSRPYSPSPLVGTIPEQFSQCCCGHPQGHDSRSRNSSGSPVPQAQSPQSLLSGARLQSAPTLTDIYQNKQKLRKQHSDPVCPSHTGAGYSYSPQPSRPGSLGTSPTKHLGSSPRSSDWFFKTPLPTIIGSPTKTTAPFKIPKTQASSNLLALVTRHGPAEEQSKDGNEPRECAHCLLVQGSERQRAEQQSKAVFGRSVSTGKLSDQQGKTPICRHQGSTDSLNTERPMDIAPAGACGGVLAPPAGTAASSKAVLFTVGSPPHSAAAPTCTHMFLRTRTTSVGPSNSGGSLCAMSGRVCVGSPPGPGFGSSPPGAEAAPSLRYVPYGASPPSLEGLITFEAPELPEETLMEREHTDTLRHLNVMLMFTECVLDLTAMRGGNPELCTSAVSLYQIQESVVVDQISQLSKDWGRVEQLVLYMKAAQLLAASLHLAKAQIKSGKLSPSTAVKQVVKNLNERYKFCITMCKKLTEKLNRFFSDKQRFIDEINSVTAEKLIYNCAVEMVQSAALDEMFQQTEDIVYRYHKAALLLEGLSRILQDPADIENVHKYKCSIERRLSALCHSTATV

[3] = target: Cyclin-dependent kinase 1/cyclin B1 (Homo sapiens) (UniProt P06493+P14635); assay: Inhibition of human CDK1/cyclin B at 500 nM by HotSpot assay relative to control; type: protein-complex assay
[4] = target: T2, Serine/threonine-protein kinase A-Raf (Homo sapiens) (UniProt P10398); assay: Inhibition of human ARAF at 500 nM by HotSpot assay relative to control
T2 sequence (whole entry): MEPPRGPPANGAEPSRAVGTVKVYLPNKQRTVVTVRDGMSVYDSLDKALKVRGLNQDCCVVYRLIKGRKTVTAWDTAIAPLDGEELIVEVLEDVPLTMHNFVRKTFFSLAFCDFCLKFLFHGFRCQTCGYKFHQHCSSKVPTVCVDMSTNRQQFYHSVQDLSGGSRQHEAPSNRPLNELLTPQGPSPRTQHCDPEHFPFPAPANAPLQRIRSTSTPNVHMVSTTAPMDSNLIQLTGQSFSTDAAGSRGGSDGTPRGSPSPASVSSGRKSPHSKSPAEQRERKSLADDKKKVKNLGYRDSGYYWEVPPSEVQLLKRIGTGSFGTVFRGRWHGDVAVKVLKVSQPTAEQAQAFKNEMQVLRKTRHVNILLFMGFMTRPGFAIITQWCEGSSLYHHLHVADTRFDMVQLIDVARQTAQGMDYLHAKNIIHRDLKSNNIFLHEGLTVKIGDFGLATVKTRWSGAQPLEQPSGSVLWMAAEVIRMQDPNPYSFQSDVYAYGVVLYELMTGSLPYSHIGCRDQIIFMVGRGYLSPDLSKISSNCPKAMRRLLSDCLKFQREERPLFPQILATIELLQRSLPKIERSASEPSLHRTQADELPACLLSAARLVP

[5] = target: T3, Ephrin type-A receptor 8 (Homo sapiens) (UniProt P29322); assay: Inhibition of human EPHA8 at 500 nM by HotSpot assay relative to control
T3 sequence (whole entry): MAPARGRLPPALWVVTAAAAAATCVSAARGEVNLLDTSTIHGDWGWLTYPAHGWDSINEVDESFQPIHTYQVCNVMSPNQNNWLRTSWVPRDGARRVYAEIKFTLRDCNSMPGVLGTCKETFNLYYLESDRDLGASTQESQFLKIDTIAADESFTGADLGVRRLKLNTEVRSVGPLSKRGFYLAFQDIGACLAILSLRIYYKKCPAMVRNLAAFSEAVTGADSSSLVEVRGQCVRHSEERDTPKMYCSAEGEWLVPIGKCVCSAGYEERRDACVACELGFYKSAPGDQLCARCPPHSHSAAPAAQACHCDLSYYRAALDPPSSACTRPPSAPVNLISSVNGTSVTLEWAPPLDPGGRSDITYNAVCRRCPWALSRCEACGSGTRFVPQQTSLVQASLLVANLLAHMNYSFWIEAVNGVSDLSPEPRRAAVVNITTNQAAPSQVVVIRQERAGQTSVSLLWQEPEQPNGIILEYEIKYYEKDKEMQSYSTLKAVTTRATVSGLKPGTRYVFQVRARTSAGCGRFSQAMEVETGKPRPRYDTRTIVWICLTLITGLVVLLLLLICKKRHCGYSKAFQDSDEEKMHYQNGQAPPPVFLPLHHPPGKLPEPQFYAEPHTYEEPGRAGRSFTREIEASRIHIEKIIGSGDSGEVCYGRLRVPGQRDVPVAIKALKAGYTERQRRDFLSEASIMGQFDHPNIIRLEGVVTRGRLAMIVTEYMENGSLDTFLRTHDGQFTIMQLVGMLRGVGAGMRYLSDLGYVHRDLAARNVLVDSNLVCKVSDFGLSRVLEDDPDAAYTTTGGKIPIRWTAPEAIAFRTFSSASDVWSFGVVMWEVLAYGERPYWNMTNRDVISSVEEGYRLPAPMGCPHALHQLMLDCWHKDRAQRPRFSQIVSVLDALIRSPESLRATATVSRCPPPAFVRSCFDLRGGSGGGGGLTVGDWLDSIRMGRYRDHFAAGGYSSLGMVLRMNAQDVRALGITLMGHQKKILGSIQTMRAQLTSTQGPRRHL

[6] = target: Death-associated protein kinase 3 (Homo sapiens) (UniProt O43293); assay: Inhibition of human DAPK3 at 500 nM by HotSpot assay relative to control
Death-associated protein kinase 3 (Homo sapiens), sequence (O43293 whole entry, looked up): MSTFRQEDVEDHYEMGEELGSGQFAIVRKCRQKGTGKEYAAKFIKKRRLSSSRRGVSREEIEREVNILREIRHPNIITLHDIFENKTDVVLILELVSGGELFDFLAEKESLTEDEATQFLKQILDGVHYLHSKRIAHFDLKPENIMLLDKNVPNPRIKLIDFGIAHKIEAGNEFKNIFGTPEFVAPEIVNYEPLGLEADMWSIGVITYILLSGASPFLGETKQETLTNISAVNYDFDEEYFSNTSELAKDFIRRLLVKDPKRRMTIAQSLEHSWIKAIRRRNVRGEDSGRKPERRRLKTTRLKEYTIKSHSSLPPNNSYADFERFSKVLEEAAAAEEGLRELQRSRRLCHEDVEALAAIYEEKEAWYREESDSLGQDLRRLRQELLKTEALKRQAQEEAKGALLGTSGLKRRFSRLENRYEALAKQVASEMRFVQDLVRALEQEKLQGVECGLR

Cyclin-dependent kinase 1/cyclin B1 (Homo sapiens), sequence (P06493 whole entry, looked up): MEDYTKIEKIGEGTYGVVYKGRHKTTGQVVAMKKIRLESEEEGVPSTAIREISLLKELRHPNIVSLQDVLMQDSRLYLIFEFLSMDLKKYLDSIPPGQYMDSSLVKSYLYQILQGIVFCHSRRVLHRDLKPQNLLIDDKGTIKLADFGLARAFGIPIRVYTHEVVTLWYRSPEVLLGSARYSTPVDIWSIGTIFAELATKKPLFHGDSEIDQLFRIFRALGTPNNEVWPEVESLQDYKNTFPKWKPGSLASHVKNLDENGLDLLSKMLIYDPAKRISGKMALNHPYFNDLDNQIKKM
Cyclin-dependent kinase 1/cyclin B1 (Homo sapiens), sequence (P14635 whole entry, looked up): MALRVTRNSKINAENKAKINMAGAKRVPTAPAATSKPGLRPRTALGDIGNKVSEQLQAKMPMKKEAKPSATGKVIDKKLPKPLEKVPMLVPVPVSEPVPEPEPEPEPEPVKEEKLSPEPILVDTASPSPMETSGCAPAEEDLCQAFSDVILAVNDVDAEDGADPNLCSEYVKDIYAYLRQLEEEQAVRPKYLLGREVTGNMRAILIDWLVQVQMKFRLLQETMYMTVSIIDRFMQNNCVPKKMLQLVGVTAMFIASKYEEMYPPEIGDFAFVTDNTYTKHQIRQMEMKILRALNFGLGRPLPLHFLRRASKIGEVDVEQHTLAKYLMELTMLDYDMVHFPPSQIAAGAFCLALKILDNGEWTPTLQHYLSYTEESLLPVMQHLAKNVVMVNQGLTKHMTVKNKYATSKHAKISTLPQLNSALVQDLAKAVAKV
Angiopoietin-1 receptor (Homo sapiens), sequence (Q02763 whole entry): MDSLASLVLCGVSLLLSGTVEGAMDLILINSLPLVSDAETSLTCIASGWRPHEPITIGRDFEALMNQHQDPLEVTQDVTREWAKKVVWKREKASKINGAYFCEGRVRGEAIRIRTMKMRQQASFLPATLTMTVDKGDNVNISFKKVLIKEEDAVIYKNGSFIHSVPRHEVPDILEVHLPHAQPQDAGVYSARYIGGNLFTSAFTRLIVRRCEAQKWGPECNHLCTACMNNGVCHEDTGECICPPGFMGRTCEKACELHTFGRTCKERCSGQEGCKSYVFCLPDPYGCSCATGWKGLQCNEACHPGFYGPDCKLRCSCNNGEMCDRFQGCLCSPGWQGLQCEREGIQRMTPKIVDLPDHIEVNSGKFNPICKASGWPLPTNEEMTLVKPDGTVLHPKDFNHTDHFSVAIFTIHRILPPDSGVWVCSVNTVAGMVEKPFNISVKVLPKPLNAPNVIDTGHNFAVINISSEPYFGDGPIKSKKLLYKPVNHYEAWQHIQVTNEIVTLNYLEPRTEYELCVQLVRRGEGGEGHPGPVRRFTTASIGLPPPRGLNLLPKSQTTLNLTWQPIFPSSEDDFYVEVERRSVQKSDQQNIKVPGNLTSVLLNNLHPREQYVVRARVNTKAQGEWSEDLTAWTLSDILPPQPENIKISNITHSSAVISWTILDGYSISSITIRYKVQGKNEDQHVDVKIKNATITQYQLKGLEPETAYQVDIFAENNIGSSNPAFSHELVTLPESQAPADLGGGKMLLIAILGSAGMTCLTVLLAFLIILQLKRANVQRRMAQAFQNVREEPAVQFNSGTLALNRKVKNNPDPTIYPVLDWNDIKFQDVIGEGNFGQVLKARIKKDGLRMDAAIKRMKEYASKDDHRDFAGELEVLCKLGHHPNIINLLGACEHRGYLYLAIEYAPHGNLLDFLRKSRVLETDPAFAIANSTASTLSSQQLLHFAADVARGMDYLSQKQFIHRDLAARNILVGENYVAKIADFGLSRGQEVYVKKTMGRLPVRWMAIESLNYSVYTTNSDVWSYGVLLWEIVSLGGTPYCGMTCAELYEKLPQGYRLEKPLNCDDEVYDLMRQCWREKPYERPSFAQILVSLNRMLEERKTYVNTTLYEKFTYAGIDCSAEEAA

Structure (SMILES): Oc1n[nH]c2nnc(-c3c(-c4ccccc4)nn4ccccc34)cc12
- inhibition [1]: 4.05%
- inhibition [2]: 0.86%
- inhibition [3]: 9.98%
- inhibition [4]: 2.19%
- inhibition [5]: -2.05%
- inhibition [6]: -0.67%

Structure (SMILES): Nc1n[nH]c2nnc(-c3c(-c4ccccc4)nn4ccccc34)cc12
- inhibition [1]: 3.45%
- inhibition [2]: 0.02%
- inhibition [3]: 9.79%
- inhibition [4]: 1.59%
- inhibition [5]: -0.31%
- inhibition [6]: -2.11%
